Drawing on patent US12145944B2, “Imidazopyrimidines as EED inhibitors and the use thereof” (THE REGENTS OF THE UNIVERSITY OF MICHIGAN, priority 2019, dated 2024), this text covers IC50 for 20 molecules.

The target in one experiment is T1, EED (1-441)-His protein (Homo sapiens, UniProt O75530).
T1 construct: 20 nM EED (1-441)-His protein
As to the kind of experiment: EED-H3K27Me3 peptide competition binding assay by AlphaScreen. The note with it: EED Alpha screen binding assay, read-out: Alpha screen. How it is done:
“N/A” stands for “not assessed”.
EED-H3K27Me3 peptide competition binding assay by AlphaScreen (α-screen)
2.5 μl of solutions containing 20 nM biotin-H3K27Me3 (19-33) peptide in the buffer (25 mM HEPES, pH 8, 0.02% Tween-20, 0.5% BSA) were added to the wells and then incubated with compound for 30 min. […] Then 10 μl of the detection beads mix was added to the plate and incubated in the dark at RT for 1 h. The final concentration of donor and acceptor beads was 10 μg/ml for each. […] The data were then fit to a dose response equation to get the IC50 values.
(In general: Alpha assays give light when donor and acceptor beads are brought close together.)

In another experiment the test system is Pfeiffer cell line. As to the kind of experiment: Anti-proliferative activity, Pfeiffer cell line, 7 day treatment. The note with it: Homo sapiens, 168 h; anti-proliferative IC50 class, Pfeiffer cell line, 7 day treatment; read-out: Pfeiffer Cell line. The experiment is classed as cell-based. The method in brief: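 Cells seeded at 2 000-3 000 per well were treated with serially diluted compounds for 7 days at 37° C, 5% CO2. Growth was measured by WST-8 assay read at 450 nm after 1-4 h reagent incubation. Readings were normalized to DMSO-treated cells and IC50 values derived by nonlinear regression.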

Experiment [1] relates to KARPAS422 human B cell lymphoma cell. The experiment is described as follows: Cell proliferation, KARPAS422, 7 day treatment (WST-8). Conditions: Homo sapiens, KARPAS-422, 168 h, 7 day treatment, read-out: Karpas Cell line. The experiment is classed as cell-based. The gist of the method:
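Read-out was WST-8 absorbance at 450 nm after 1-4 h with reagent, taken after 7-day compound treatment (serial dilutions, 37 °C, 5% CO2) of 2 000-3 000 KARPAS422 cells per well. IC50 fitted by nonlinear regression on DMSO-normalized values.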

[2] abbreviates: anti-proliferative IC50 class, Karpas 422 cell line.
Where [3] appears, read: anti-proliferative IC50, Karpas 422 cell line.

Where two headings read alike, the source gives them in different places. Some results are limits rather than exact numbers.

T1 sequence (O75530 whole entry): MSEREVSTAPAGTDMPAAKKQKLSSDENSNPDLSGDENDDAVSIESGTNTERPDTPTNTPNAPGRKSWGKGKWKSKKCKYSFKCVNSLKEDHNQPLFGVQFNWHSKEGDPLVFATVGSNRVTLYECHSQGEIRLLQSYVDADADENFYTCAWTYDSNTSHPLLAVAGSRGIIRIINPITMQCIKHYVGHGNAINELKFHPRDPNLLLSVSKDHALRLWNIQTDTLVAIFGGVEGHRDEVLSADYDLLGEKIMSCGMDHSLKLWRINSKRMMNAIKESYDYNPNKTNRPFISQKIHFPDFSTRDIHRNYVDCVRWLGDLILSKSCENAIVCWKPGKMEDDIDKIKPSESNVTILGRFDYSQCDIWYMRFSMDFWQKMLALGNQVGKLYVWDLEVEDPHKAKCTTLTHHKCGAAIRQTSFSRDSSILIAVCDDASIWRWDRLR

Consider `Cc1ccc2c(n1)CN(CC(F)(F)F)C(=O)c1ncn3c(NCc4c(F)ccc5c4CCO5)ncc-2c13` [E 3, 12-(((5-fluoro-2,3-dihydrobenzofuran-4-yl)methyl)amino)-7-methyl-4-(2,2,2-trifluoroethyl)-4,5-dihydro-3H-2,4,6,11,12a-pentaazabenzo[4,5]cycloocta[1,2,3-cd]inden-3-one], for which the IC50 (on EED (1-441)-His protein (IC50 class); with Pfeiffer cell line; in experiment [1] (setting [2])) was less than 10 nM throughout.

In the case of `Cc1ccc2c(n1)CN(CC(C)(F)F)C(=O)c1ncn3c(NCc4c(F)ccc5c4CCO5)ncc-2c13` [E 7, 4-(2,2-difluoropropyl)-12-(((5-fluoro-2,3-dihydrobenzofuran-4-yl)methyl)amino)-7-methyl-4,5-dihydro-3H-2,4,6,11,12a-pentaazabenzo[4,5]cycloocta[1,2,3-cd]inden-3-one], the IC50 (at EED (1-441)-His protein (IC50 class); in the experiment with Pfeiffer cell line; in experiment [1] (setting [2])) was less than 10 nM each time.

Consider `[2H]C([2H])([2H])c1ccc2c(n1)CN(CC(F)(F)F)C(=O)c1ncn3c(NCc4c(F)ccc5c4CCO5)ncc-2c13` [E 19, 12-(((5-fluoro-2,3-dihydrobenzofuran-4-yl)methyl)amino)-7-(methyl-d3)-4-(2,2,2-trifluoroethyl)-4,5-dihydro-3H-2,4,6,11,12a-pentaazabenzo[4,5]cycloocta[1,2,3-cd]inden-3-one], for which the IC50 (at EED (1-441)-His protein (IC50 class); in the experiment on Pfeiffer cell line; in experiment [1] (setting [2])) was less than 10 nM each time.

Regarding `[2H]C([2H])(Nc1ncc2c3c(ncn13)C(=O)N(CC(F)(F)F)Cc1nc(C)ccc1-2)c1c(F)ccc2c1CCO2` [E 20, 12-(((5-fluoro-2,3-dihydrobenzofuran-4-yl)methyl-d2)amino)-7-methyl-4-(2,2,2-trifluoroethyl)-4,5-dihydro-3H-2,4,6,11,12a-pentaazabenzo[4,5]cycloocta[1,2,3-cd]inden-3-one], the IC50 (on EED (1-441)-His protein (IC50 class); in the experiment on Pfeiffer cell line; in experiment [1] (setting [2])) was less than 10 nM throughout.

As to `[2H]C([2H])([2H])c1ccc2c(n1)CN(CC(F)(F)F)C(=O)c1ncn3c(NC([2H])([2H])c4c(F)ccc5c4CCO5)ncc-2c13` [E 21, 12-(((5-fluoro-2,3-dihydrobenzofuran-4-yl)methyl-d2)amino)-7-(methyl-d3)-4-(2,2,2-trifluoroethyl)-4,5-dihydro-3H-2,4,6,11,12a-pentaazabenzo[4,5]cycloocta[1,2,3-cd]inden-3-one], the IC50 (at EED (1-441)-His protein (IC50 class); with Pfeiffer cell line; in experiment [1] (setting [2])) was less than 10 nM throughout.

Consider `[2H]C1Oc2ccc(F)c(C([2H])([2H])Nc3ncc4c5c(ncn35)C(=O)N(CC(F)(F)F)Cc3nc(C)ccc3-4)c2C1[2H]` (stereo not shown) [E 22, 12-(((5-fluoro-2,3-dihydrobenzofuran-4-yl-2,3-d2)methyl-d2)amino)-7-methyl-4-(2,2,2-trifluoroethyl)-4,5-dihydro-3H-2,4,6,11,12a-pentaazabenzo[4,5]cycloocta[1,2,3-cd]inden-3-one], for which the IC50 (on EED (1-441)-His protein (IC50 class); with Pfeiffer cell line; in experiment [1] (setting [2])) was less than 10 nM each time.

As for `[2H]C1Oc2ccc(F)c(C([2H])([2H])Nc3ncc4c5c(ncn35)C(=O)N(CC(F)(F)F)Cc3nc(C([2H])([2H])[2H])ccc3-4)c2C1[2H]` (stereo not shown) [E 23, 12-(((5-fluoro-2,3-dihydrobenzofuran-4-yl-2,3-d2)methyl-d2)amino)-7-(methyl-d3)-4-(2,2,2-trifluoroethyl)-4,5-dihydro-3H-2,4,6,11,12a-pentaazabenzo[4,5]cycloocta[1,2,3-cd]inden-3-one], the IC50 (on EED (1-441)-His protein (IC50 class); with Pfeiffer cell line; in experiment [1] (setting [2])) was less than 10 nM in each case.

As to `Cc1ccc(-c2cc(C#N)c(NCc3c(F)ccc4c3CCO4)n3cnc(S(C)(=O)=O)c23)c(C)n1` [E 25, 8-(2,6-dimethylpyridin-3-yl)-5-(((5-fluoro-2,3-dihydrobenzofuran-4-yl)methyl)amino)-1-(methylsulfonyl)imidazo[1,5-a]pyridine-6-carbonitrile], the IC50 was less than 10 nM at EED (1-441)-His protein (IC50 class), 10 to 100 nM with Pfeiffer cell line and 10 to 100 nM in experiment [1] (setting [2]).

For the molecule `CS(=O)(=O)c1ncn2c(NCc3c(F)ccc4c3CCO4)c(C#N)cc(-c3ccc(C4CC4)nc3)c12` [E 26, 8-(6-cyclopropylpyridin-3-yl)-5-(((5-fluoro-2,3-dihydrobenzofuran-4-yl)methyl)amino)-1-(methylsulfonyl)imidazo[1,5-a]pyridine-6-carbonitrile], the results for the IC50 (on EED (1-441)-His protein (IC50 class); in the experiment on Pfeiffer cell line; in experiment [1] (setting [2])) were 10 to 100 nM, less than 10 nM and 10 to 100 nM, respectively.

For the molecule `Cc1ccc(-c2cnc(NCc3c(F)ccc4c3CCO4)n3cnc(C(F)(F)F)c23)c(C)n1` [compound 115, 8-(2,6-dimethylpyridin-3-yl)-N-((5-fluoro-2,3-dihydrobenzofuran-4-yl)methyl)-1-(trifluoromethyl)imidazo[1,5-c]pyrimidin-5-amine], the figures for the IC50 (on EED (1-441)-His protein; in experiment [1] (setting [3])) were 2.35 nM and 50.1 nM, respectively.

In the case of `Fc1ccc2c(c1CNc1ncc(-c3ccc(C(F)(F)F)nc3)c3c(C(F)(F)F)ncn13)CCO2` [compound 116, N-((5-fluoro-2,3-dihydrobenzofuran-4-yl)methyl)-1-(trifluoromethyl)-8-(6-(trifluoromethyl)pyridin-3-yl)imidazo[1,5-c]pyrimidin-5-amine], the IC50 on EED (1-441)-His protein was 1.98 nM; in experiment [1] (setting [3]), more than 100 nM.

`CP(C)(=O)c1ncn2c(NCc3c(F)ccc4c3CCO4)ncc(-c3ccc(C(F)F)nc3)c12` [compound 117, (8-(6-(difluoromethyl)pyridin-3-yl)-5-(((5-fluoro-2,3-dihydrobenzofuran-4-yl)methyl)amino)imidazo[1,5-c]pyrimidin-1-yl)dimethylphosphine oxide]: the IC50 on EED (1-441)-His protein was 0.19 nM; in experiment [1] (setting [3]) it was 19.5 nM.

As to `CP(C)(=O)c1ncn2c(NCc3c(F)ccc4c3CCO4)ncc(-c3ccc(F)cc3)c12` [compound 118, (5-(((5-fluoro-2,3-dihydrobenzofuran-4-yl)methyl)amino)-8-(4-fluorophenyl)imidazo[1,5-c]pyrimidin-1-yl)dimethylphosphine oxide], the values for the IC50 (at EED (1-441)-His protein; in experiment [1] (setting [3])) were 0.27 nM and 28.4 nM, respectively.

For the molecule `CP(C)(=O)c1ncn2c(NCc3c(F)ccc4c3CCO4)ncc(-c3ccc(C(F)(F)F)nc3)c12` [compound 119, (5-(((5-fluoro-2,3-dihydrobenzofuran-4-yl)methyl)amino)-8-(6-(trifluoromethyl)pyridin-3-yl)imidazo[1,5-c]pyrimidin-1-yl)dimethylphosphine oxide], the figures for the IC50 (on EED (1-441)-His protein; in experiment [1] (setting [3])) were 0.2 nM and 27.9 nM, respectively.

As for `CCP(=O)(CC)c1ncn2c(NCc3c(F)ccc4c3CCO4)ncc(-c3ccc(C(F)(F)F)nc3)c12` [compound 120, diethyl(5-(((5-fluoro-2,3-dihydrobenzofuran-4-yl)methyl)amino)-8-(6-(trifluoromethyl)pyridin-3-yl)imidazo[1,5-c]pyrimidin-1-yl)phosphine oxide], the IC50 at EED (1-441)-His protein is 1.15 nM; in experiment [1] (setting [3]), more than 100 nM.

As to `CCP(=O)(CC)c1ncn2c(NCc3c(F)ccc4c3CCO4)ncc(-c3ccc(C(F)(F)F)cc3)c12` [compound 121, diethyl(5-(((5-fluoro-2,3-dihydrobenzofuran-4-yl)methyl)amino)-8-(4-(trifluoromethyl)phenyl)imidazo[1,5-c]pyrimidin-1-yl)phosphine oxide], the IC50 is 0.31 nM on EED (1-441)-His protein and more than 100 nM in experiment [1] (setting [3]).

`CCP(=O)(CC)c1ncn2c(NCc3c(F)ccc4c3CCO4)ncc(-c3ccc(S(C)(=O)=O)cc3)c12` [compound 122, diethyl(5-(((5-fluoro-2,3-dihydrobenzofuran-4-yl)methyl)amino)-8-(4-(methylsulfonyl)phenyl)imidazo[1,5-c]pyrimidin-1-yl)phosphine oxide]: the values for the IC50 (at EED (1-441)-His protein; in experiment [1] (setting [3])) were 0.31 nM and more than 100 nM, respectively.

On to `Cc1ccc(-c2cnc(NCc3c(F)ccc4c3CCO4)n3cnc(P(C)(C)=O)c23)c(C)n1` [compound 123, (8-(2,6-dimethylpyridin-3-yl)-5-(((5-fluoro-2,3-dihydrobenzofuran-4-yl)methyl)amino)imidazo[1,5-c]pyrimidin-1-yl)dimethylphosphine oxide], for which the IC50 on EED (1-441)-His protein was found to be 4.74 nM; in experiment [1] (setting [3]), 22.9 nM.

Take `CCP(=O)(CC)c1ncn2c(NCc3c(F)ccc4c3CCO4)ncc(-c3ccc(F)cc3)c12` [compound 124, diethyl(5-(((5-fluoro-2,3-dihydrobenzofuran-4-yl)methyl)amino)-8-(4-fluorophenyl)imidazo[1,5-c]pyrimidin-1-yl)phosphine oxide]: the figures for the IC50 (on EED (1-441)-His protein; in experiment [1] (setting [3])) were 8.04 nM and 72 nM, respectively.

`CCP(=O)(CC)c1ncn2c(NCc3c(F)ccc4c3CCO4)ncc(-c3ccc(C)nc3C)c12` [compound 125, (8-(2,6-dimethylpyridin-3-yl)-5-(((5-fluoro-2,3-dihydrobenzofuran-4-yl)methyl)amino)imidazo[1,5-c]pyrimidin-1-yl)diethylphosphine oxide]: the IC50 worked out at 27.6 nM on EED (1-441)-His protein and 91.7 nM in experiment [1] (setting [3]).
